Assay results as given in PMC6934184, “Selective DNA-PKcs inhibition extends the therapeutic index of localized radiotherapy and chemotherapy” (The Journal of Clinical Investigation, 2019).

Molecular target: T1, GRK4 (Homo sapiens, UniProt P32298)
T1 construct: purchased Thermo Fisher Scientific (Life Technologies) SelectScreen
Assay: SelectScreen Z'LYTE
Format: biochemical
Outline: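 Percent values come from Thermo SelectScreen profiling of NU5455, combining activity and binding assays. CSF1R was run in Z'LYTE format at Km app ATP, and CAMK1 in Adapta format with ATP listed at 10.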

T1 sequence (P32298 whole entry): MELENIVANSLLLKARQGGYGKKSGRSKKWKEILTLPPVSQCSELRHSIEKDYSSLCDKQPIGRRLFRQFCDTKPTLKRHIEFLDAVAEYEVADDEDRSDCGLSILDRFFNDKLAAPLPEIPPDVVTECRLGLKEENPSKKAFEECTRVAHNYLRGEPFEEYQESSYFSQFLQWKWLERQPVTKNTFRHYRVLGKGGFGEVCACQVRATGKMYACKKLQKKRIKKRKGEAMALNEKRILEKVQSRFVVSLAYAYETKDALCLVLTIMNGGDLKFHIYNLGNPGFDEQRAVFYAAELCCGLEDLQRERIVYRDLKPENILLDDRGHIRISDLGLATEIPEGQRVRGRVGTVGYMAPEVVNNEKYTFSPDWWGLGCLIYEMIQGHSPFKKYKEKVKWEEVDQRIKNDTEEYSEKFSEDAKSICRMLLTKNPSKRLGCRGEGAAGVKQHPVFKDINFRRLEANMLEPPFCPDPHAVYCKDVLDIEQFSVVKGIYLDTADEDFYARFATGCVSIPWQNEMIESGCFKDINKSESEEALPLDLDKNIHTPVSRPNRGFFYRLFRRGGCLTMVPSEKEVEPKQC

For CN(C(=O)CN1CCOCC1)c1ccc2sc3c(-c4cccc5c(=O)cc(N6CC7CCC(C6)O7)oc45)cccc3c2c1 [NU5455], the inhibition at 1 µM was 3.5%.
